Counter-ions that a name gives are not always drawn.
Legend:
[1] = test system: isolated rabbit thoracic aorta preparations; test: Study on vascular tone: vasorelaxation of noradrenaline-precontracted aortic rings; assay type: cell-based; conditions: for IC50: Oryctolagus cuniculus, concentration giving 50% reversal of NA (1 μM) contraction, rabbit thoracic aorta rings with functional endothelium, read-out: IC50 (μM) ± sem
Description: The ability of ACE inhibitor nitroderivatives to induce vasorelaxation in comparison to native ACE inhibitors, was tested in vitro in isolated rabbit thoracic aorta preparations (Wanstall J. C. et al., Br. J. Pharmacol., 134:463–472, 2001). Male New Zealand rabbits were anaesthetized with thiopental-Na (50 mg/kg, iv), sacrificed by exsanguinations and then the thorax was opened and the aorta dissected. Single ring preparations (4 mm in length) of thoracic aorta were set up in physiological salt solution (PSS) at 37° C. in small organ chambers (5 ml). The composition of PSS was (mM): NaCl 130, NaHCO3 14.9, KH2PO4 1.2, MgSO4 1.2, HEPES 10, CaCl2, […] (95% O2/5% CO2; pH 7.4). Each ring was mounted under 2 g passive tension in 5 ml organ bath. Isometric tension was recorded with a Grass transducer (Grass FT03) attached to a BIOPAC MP150 System. Preparations were allowed to equilibrate for 1 h, then contracted submaximally with noradrenaline (NA, 1 μM) and, when the contraction was stable, acetylcholine (ACh, 10 μM) was added. A relaxant response to ACh indicated the presence of a functional endothelium. When a stable precontraction was reached, a cumulative concentration-response curve to either of the vasorelaxant agents was obtained in the presence of a functional endothelium. Time intervals between different concentrations were based on the time needed to reach a full response. Moreover, the effect of the soluble guanylyl cyclase inhibitor ODQ (1-H-(1,2,4)-oxadiazol(4,3-a)quinoxalin-1-one) on the dilator responses elicited by the compounds was examined preincubating the aortic rings with ODQ (10 μM) for 20 min. Responses to vasorelaxing agents were measured from the plateau of NA contraction. The IC50 (concentration giving 50% reversal of NA contraction) was interpolated from the plots of relaxant-response vs log molar concentration of tested compound.
IC50 is the concentration which inhibits 50% of the response.

[2] = biological target: T1, ACE (Mus musculus, UniProt P09470); test: Plasma ACE activity in CD1 mouse after i.v. dosing (FAPGG spectrophotometric method); assay type: in vivo; conditions: % vs basal condition
T1 construct: The plasma was stored at −20° C. until the ACE activity measurements; from tissue; host or cells: plasma of CD1 mice (heparinized blood from the vena cava)
T1 sequence (P09470 35-1237 limits assumed): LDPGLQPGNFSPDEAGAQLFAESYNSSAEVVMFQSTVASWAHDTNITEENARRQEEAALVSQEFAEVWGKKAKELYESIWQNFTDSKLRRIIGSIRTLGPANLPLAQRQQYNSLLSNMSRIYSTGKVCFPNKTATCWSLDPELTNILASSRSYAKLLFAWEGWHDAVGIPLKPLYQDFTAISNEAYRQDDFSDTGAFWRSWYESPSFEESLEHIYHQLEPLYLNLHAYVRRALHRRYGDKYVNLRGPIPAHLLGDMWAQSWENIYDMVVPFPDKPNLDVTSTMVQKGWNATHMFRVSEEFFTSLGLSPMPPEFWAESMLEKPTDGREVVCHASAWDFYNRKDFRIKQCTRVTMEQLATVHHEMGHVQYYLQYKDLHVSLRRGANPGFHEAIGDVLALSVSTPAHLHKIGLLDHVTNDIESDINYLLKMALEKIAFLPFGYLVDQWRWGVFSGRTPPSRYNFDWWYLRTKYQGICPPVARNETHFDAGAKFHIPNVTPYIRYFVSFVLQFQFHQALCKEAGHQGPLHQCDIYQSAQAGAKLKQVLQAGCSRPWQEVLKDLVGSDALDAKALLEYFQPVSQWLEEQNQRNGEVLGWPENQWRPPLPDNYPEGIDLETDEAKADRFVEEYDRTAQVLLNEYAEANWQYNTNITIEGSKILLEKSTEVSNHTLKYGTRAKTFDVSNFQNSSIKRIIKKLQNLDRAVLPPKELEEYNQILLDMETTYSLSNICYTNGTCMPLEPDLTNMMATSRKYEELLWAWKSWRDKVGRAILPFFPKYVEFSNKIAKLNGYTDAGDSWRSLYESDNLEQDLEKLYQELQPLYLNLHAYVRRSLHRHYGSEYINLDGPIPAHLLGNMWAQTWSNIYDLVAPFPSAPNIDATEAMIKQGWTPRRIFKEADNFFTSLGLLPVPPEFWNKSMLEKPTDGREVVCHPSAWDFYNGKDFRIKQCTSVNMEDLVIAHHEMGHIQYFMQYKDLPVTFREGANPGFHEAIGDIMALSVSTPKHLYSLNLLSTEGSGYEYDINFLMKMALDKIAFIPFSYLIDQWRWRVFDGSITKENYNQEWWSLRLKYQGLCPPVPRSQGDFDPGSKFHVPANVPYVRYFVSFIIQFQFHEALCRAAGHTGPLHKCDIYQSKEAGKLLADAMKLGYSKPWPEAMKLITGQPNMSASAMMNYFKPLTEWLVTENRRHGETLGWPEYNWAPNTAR
Description: CD1 mouse were treated i.v. with a single dose of 3 mg/Kg of enalapril and with a equimolar doses of enalapril nitroderivatives (compound of Ex. 3; 3.6 mg/Kg) and NO-ENA (3.92 mg/Kg). […] Heparinized blood samples were centrifuged at 1000 g for 20 min at 4° C. The plasma was stored at −20° C. until the ACE activity measurements. The ACE activity was determined by a spectrophotometric method (Sigma) based on the enzymatic reaction catalysed by ACE, where the FAPGG was hydrolysed to FAP. FAPGG hydrolysis produced a decrease in the absorbance at 340 nm, a marker of ACE activity in the sample.
The results, reported in Table 3, are expressed as % of ACE activity vs basal condition.

[3] = test system: L-NAME-induced hypertension in rats; test: L-NAME-induced hypertension in rats; assay type: in vivo, rat; conditions: for Systolic blood pressure (mmHg): 2 hours after administration, equimolar doses, basal 140
Description: Male Wistar rats weighing 225–250 g were used. The rats were divided into two groups. Under halothane anesthesia, radiotelemetry probes were inserted into descending aorta to measure systolic blood pressure (SBP). Baseline blood pressure was recovered (103 mmHg). Both groups were then provided with drinking water supplemented with L-NAME (400 mg/L) for 7 days to induce hypertension. After this treatment all the animals have a SBP of about 140 mmHg. The rats were then treated orally each day with enalapril or an equimolar dose of enalapril-nitroderivative (compound Ex. 3). Blood pressure recordings were made 2 hours after drug administration. The study was continued over three days period of drug administration.

[4] = test system: rats with renal mass reduction (RMR); test: Proteinuria and renal disease progression in rats with renal mass reduction (RMR); assay type: in vivo, rat; conditions: for effect on proteinuria (in words): repeated oral treatment, at 3 months
Description: Sprague-Dawley rats underwent right nephrectomy and ligation of two or tree branches of the main renal artery according to Olson et al. (1982). […] A group of sham operated rats was also included (Sham). Urinary protein excretion measurements were performed before the treatment and every month thereafter. Twenty-four hour urine samples were collected using metabolic cages and proteinuria was determined by the modified Coomassie Blu G dye-binding assay for the proteins with bovine serum albumin as standard.

[5] = test system: SHR rats; test: Hypotensive properties in SHR rats; assay type: in vivo, rat; conditions: i.v. bolus injection of equimolar doses, conscious SHR rats
Description: After at least 5 days after surgical catheterization of the arterial and venous femoral, conscious old (>9 months) male SHR rats were injected iv bolus with Enalapril, compound of Ex. 3 (equimolar doses) and vehicle (saline) (0.0335 mL/100 g body weight). Blood pressure and heart rate were recorded before (control period 1 h) and after IV bolus administration for up to 4 h.

[6] = NO release (NOx formation) in rat plasma; assay type: in vitro ADME; conditions: 250 μM, up to 240 min
Description: Rat blood was freshly collected with Na-heparin as anticoagulant from male Sprague Dawley rats weighing about 300–330 g. Blood was immediately centrifuged to obtain plasma. Plasma was incubated for up to 240 min at 37° C. in presence of either compound of Ex. 3 (250 μM) or of NO-ENA (250 μM). At fixed times points samples were withdrawn from the incubation and NOx (nitrites+nitrates), the oxidative products of NO, were determined by GPC (gas phase chemiluminescence).

[7] = 15 min after single i.v. dose equimolar to 3 mg/Kg enalapril
[8] = 30 min after single i.v. dose equimolar to 3 mg/Kg enalapril
[9] = 1 h after single i.v. dose equimolar to 3 mg/Kg enalapril
[10] = 3 hs after single i.v. dose equimolar to 3 mg/Kg enalapril
[11] = 6 hs after single i.v. dose equimolar to 3 mg/Kg enalapril
[12] = 24 hs after single i.v. dose equimolar to 3 mg/Kg enalapril
[13] = 3rd month of daily oral treatment, Compound of Ex. 3 50 mg/kg, enalapril 7.5 mg/kg
[14] = 21 days after renal ablation, before the treatment
[15] = Basal (before renal ablation and treatment)

IC50 [1] [µM]	ACE Activity (% of activity) [2, 7] [%]	ACE Activity (% of activity) [2, 8] [%]	ACE Activity (% of activity) [2, 9] [%]	ACE Activity (% of activity) [2, 10] [%]	ACE Activity (% of activity) [2, 11] [%]	ACE Activity (% of activity) [2, 12] [%]	SMILES	Systolic blood pressure (mmHg) ([3]; 1st day of oral treatment)	Systolic blood pressure (mmHg) ([3]; 2nd day of oral treatment)	Systolic blood pressure (mmHg) ([3]; 3rd day of oral treatment)	relaxation of NA-contracted aortic rings (in words) ([1]; cumulative concentration-response curve)	Proteinuria (mg/day) ± sem [4, 13] [mg/day]	Proteinuria (mg/day) ± sem [4, 14] [mg/day]	Proteinuria (mg/day) ± sem [4, 15] [mg/day]	effect on proteinuria (in words) [4]	decrease in blood pressure compared with enalapril (in words) [5]	effects on L-NAME-induced hypertension compared with enalapril (in words) ([3]; oral, equimolar dose)	NO-release rate compared with NO-ENA (in words) [6]
21.9 ± 6.9	–	–	–	–	–	–	C[C@H](N[C@@H](CCc1ccccc1)C(=O)OCCCO[N+](=O)[O-])C(=O)N1CCC[C@H]1C(=O)O [Compound of Ex. 1, N-[(1S)-1-(3-nitrooxypropoxycarbonyl)-3-phenylpropyl]-L-alanyl-L-proline hydrochloride]	–	–	–	–	–	–	–	–	–	–	–
–	5.4	4.8	9.3	23.6	55.2	90.1	CCOC(=O)[C@H](CCc1ccccc1)N[C@@H](C)C(=O)N1CCC[C@H]1C(=O)Oc1cccc(CO[N+](=O)[O-])c1.O=C(O)/C=C\C(=O)O [NO-ENA, enalapril 3-(nitrooxymethyl)phenyl ester maleate]	–	–	–	–	–	–	–	–	–	–	–
> 100	4.8	5.1	7.3	19.6	50.8	100	CCOC(=O)[C@H](CCc1ccccc1)N[C@@H](C)C(=O)N1CCC[C@H]1C(=O)O [Enalapril]	128	125	120	did not produce relaxation at any of the concentration tested	290.5 ± 43.2	72.4 ± 18.3	15.7 ± 1.2	only a marginal effect	–	–	–
30.9 ± 8.4	2.9	3.7	4.1	11.1	49.2	83.55	CCOC(=O)[C@H](CCc1ccccc1)N[C@@H](C)C(=O)N1CCC[C@H]1C(=O)OCCCO[N+](=O)[O-].O=C(O)/C=C\C(=O)O [Compound of Ex. 3, N-[(1S)-1-(Ethoxycarbonyl)-3-phenylpropyl]-L-alanyl-L-proline 3-nitrooxypropyl ester hydrogen maleate]	120	117	115	–	163.9	76.5 ± 20.3	17.5 ± 1.3	reduced proteinuria at 3 months	higher decrease in blood pressure than enalapril	superior to those of enalapril	much slower than the NO-release of NO-ENA
